Where “and” joins values, the source holds several entries; their conditions need not be identical. Equal entries are not always repeated.
Tests used:
Format in all cases: cell-based
mouse neutrophils = experiment: Rapid adhesion of mouse neutrophils to fibrinogen and ICAM-1; conditions: mean+/−SD
Text: (§1) All data are expressed as the mean+/−SD of bound cells in 0.2 mm^2 from three independent experiments made in duplicate.

human neutrophils [1] = experiment: Rapid human neutrophil adhesion to ICAM-1, inhibition by bocMLF and PTx; conditions: oligomeric Aβ, 2 minutes
Experimental: It is known that one of the receptors for Aβ is the receptor for fMLP, formylpeptide chemotactic receptor (FPR). To evaluate the contribution of this GPCR receptor on Aβ-dependent neutrophil adhesion, we inhibited its function using boc-MLF, a formyl-peptide chemotactic receptor antagonist. Human neutrophils were incubated for 2 minutes with buffer (control) or with oligomeric Aβ. 0.1 μM fMLP was used as a positive control. Values are expressed as the mean counts of bound cells in 0.2 mm^2 from three independent experiments in duplicate. Error bars represent SD. […] To exclude the possibility that rapid adhesion triggering was a consequence of a generic plasma membrane alteration due to the lipophilic nature of Aβ, we evaluated rapid adhesion in lymphocytes, which are known to lack fMLP receptors.

human neutrophils [2] = experiment: Rapid adhesion of human neutrophils to fibrinogen and ICAM-1; conditions: mean+/−SD
Text: as §1

LFA-1 = LFA-1 affinity state in human neutrophils (conformer-specific antibodies, cytofluorimetry); conditions: 20 μM, 10 s, mean fluorescence intensity, ctrl = 1
Text: Neutrophil arrest is rapidly triggered by chemokines or other chemoattractants and is mediated by the binding of LFA-1 integrin to its vascular ligand ICAM-1. Ligation of specific heterotrimeric GPCRs by chemokines induces integrins to undergo a dramatic transition from a bent low-affinity conformation to extended intermediate- and high-affinity conformations, which leads to opening of the ligand-binding pocket. We hypothesized that Aβ may trigger intermediate and/or high affinity state of LFA-1 integrin and studied the effect of Aβ1-42 oligomers on human LFA-1 affinity using KIM127 and 327A conformer-specific antibodies for intermediate- and high-affinity state respectively.
The cells were stimulated for 10 s with 0.5 μmol/L of CXCL12, 0.1 μM fMLP, 20 μM Aβ1-42, or 20 μM Aβ42-1 under stirring at 37° C. After rapid washing, cells were stained with FITC-conjugated secondary polyclonal antibody and analyzed by cytofluorimetric quantification. Data are mean fluorescence intensity +/−SD from three independent experiments.

human neutrophils [3] = experiment: Isoluminol chemiluminescence ROS assay, human neutrophils; conditions: human neutrophils on fibrinogen, mean+/−SD
Experimental: One of the mechanisms of neuronal damage by beta-amyloid in Alzheimer's disease is the generation of reactive oxygen species (ROS). We determined whether Aβ1-42 oligomers induce ROS production in neutrophils by using a chemiluminescence assay.
Isoluminol-based chemiluminescence assays were performed in HGCa in the presence of horseradish peroxidase (HRP) and isoluminol (both from Sigma-Aldrich) in a temperature-controlled Multilabel Count Victor X5 (Perkin Elmer). Assays were run in dark 96 well plates precoated with 250 μg/ml human fibrinogen in HGCa containing (final concentration): 100 μM isoluminol and 8 U/ml HRP. After addition of 1×10^5 human neutrophils or 7.5×10^5 mouse neutrophils, plates were left at 37° C. for 5-10 min and the reaction started by addition of the stimulus. Light emission was recorded every minute.
We used the chemotactic peptide fMLP as positive control. […] Data are mean+/−SD for three independent experiments.

Abeta 1-42: soluble oligomeric amyloid-beta 1-42 peptide used as stimulus
Rapid adhesion to Fibrinogen (mouse neutrophils; 5 μM): 37.13 ± 3.25 bound cells in 0.2 mm^2 | Rapid adhesion to ICAM-1 (mouse neutrophils; 5 μM): 149.9 ± 28 bound cells in 0.2 mm^2 | Rapid adhesion to Fibrinogen (mouse neutrophils; 10 μM): 44.75 ± 3.68 bound cells in 0.2 mm^2 | Rapid adhesion to ICAM-1 (mouse neutrophils; 10 μM): 201.9 ± 14.14 bound cells in 0.2 mm^2 | Rapid adhesion to Fibrinogen (mouse neutrophils; 20 μM): 88.75 ± 7.72 bound cells in 0.2 mm^2 | Rapid adhesion to ICAM-1 (mouse neutrophils; 20 μM): 285.3 ± 12.5 bound cells in 0.2 mm^2 | Rapid adhesion to Fibrinogen (mouse neutrophils; Abeta 1 μM): 8 ± 2.42 bound cells in 0.2 mm^2 | Rapid adhesion to ICAM-1 (mouse neutrophils; Abeta 1 μM): 27.42 ± 3.59 bound cells in 0.2 mm^2 | Neutrophil adhesion to ICAM-1, stimulus alone (Ctrl, no inhibitor) (human neutrophils [1]): 490.4 ± 38.9 bound cells in 0.2 mm^2 and 475.5 ± 40.0 bound cells in 0.2 mm^2 | Rapid adhesion to Fibrinogen (human neutrophils [2]; 1 μM): 108.0 ± 26.1 bound cells in 0.2 mm^2 | Rapid adhesion to ICAM-1 (human neutrophils [2]; 1 μM): 156.5 ± 40.9 bound cells in 0.2 mm^2 | Rapid adhesion to Fibrinogen (human neutrophils [2]; 5 μM): 200.9 ± 48.7 bound cells in 0.2 mm^2 | Rapid adhesion to ICAM-1 (human neutrophils [2]; 5 μM): 184.0 ± 55.4 bound cells in 0.2 mm^2 | Rapid adhesion to Fibrinogen (human neutrophils [2]; 10 μM): 285.2 ± 38.9 bound cells in 0.2 mm^2 | Rapid adhesion to ICAM-1 (human neutrophils [2]; 10 μM): 229.2 ± 43.4 bound cells in 0.2 mm^2 | Rapid adhesion to Fibrinogen (human neutrophils [2]; 20 μM): 449.1 ± 34.0 bound cells in 0.2 mm^2 | Rapid adhesion to ICAM-1 (human neutrophils [2]; 20 μM): 281.0 ± 30.7 bound cells in 0.2 mm^2 | 327A (high-affinity state of LFA-1) (LFA-1): 3.29 ± 0.44 | KIM127 (intermediate-affinity state of LFA-1) (LFA-1): 2.54 ± 0.12 | ROS generation (chemiluminescence) (human neutrophils [3]; 1 min): 558 ± 112 | ROS generation (chemiluminescence) (human neutrophils [3]; 2 min): 540 ± 106 | ROS generation (chemiluminescence) (human neutrophils [3]; 3 min): 358 ± 132 | ROS generation (chemiluminescence) (human neutrophils [3]; 4 min): 235 ± 61 | ROS generation (chemiluminescence) (human neutrophils [3]; 5 min): 199 ± 76
